Experimental data reported in paper PMC4150253 (ChemMedChem, 2014).

Legend:
Type in all cases: biochemical
[1] = target: PCAF HAT domain (493-658) (Homo sapiens, UniProt Q92831); assay: Radiometric HAT assay, PCAF HAT domain
FL-Tip60 (1-512 aa) = FL-Tip60 (1-512 aa) (Homo sapiens, UniProt Q92993); assay: Radiometric filter binding HAT assay, full-length Tip60
CAT-Tip60 (221-512 aa) = CAT-Tip60 (221-512 aa) (Homo sapiens, UniProt Q92993); assay: Radiometric filter binding HAT assay, Tip60 catalytic domain
CAT-Tip60 (221-512 aa), sequence (Q92993 221-512): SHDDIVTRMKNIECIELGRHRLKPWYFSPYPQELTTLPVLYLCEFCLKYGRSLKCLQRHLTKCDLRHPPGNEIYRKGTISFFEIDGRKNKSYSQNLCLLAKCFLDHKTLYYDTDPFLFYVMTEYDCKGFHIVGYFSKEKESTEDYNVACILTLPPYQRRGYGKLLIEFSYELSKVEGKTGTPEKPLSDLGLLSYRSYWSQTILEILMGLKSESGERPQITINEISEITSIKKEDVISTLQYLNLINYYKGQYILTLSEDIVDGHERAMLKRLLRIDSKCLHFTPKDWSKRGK

PCAF HAT domain (493-658), sequence (Q92831 493-658): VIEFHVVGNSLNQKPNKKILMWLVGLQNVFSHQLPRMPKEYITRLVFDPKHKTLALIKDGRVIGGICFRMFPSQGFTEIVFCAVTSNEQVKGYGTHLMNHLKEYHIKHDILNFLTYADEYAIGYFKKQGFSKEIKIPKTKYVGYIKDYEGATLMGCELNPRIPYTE
FL-Tip60 (1-512 aa), sequence (Q92993 1-512): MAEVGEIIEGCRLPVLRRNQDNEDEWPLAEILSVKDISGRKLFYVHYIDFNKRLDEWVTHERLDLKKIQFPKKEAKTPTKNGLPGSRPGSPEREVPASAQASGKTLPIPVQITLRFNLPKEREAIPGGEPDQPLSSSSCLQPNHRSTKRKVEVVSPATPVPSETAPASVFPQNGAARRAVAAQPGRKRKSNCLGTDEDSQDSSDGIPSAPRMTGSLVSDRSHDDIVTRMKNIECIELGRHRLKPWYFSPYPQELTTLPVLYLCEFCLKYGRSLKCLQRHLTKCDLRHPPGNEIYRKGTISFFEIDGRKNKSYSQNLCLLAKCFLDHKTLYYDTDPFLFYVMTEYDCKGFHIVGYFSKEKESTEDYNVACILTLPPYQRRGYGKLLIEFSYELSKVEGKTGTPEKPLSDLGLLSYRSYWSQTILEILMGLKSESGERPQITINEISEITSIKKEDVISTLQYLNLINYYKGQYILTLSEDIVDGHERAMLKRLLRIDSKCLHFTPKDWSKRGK

**Q.** What does the source list for `CC(C)(COP(=O)(O)OP(=O)(O)OC[C@H]1O[C@@H](n2cnc3c(N)ncnc32)[C@H](O)[C@@H]1OP(=O)(O)O)[C@@H](O)C(=O)NCCC(=O)NCCS` [CoASH]?
**A.** IC50 [1]: 8.4 ± 0.4 µM; IC50 (FL-Tip60 (1-512 aa)): 9.1 ± 1 µM; IC50 (CAT-Tip60 (221-512 aa)): 16 ± 3.1 µM
